Assay: Binding affinity towards histamine receptor by inhibiting specific binding of [3H]-mepyramine (3 nM) in vitro to membranes of rat brain without cerebellum
Assay type: cell membranes

IC50 [nM]	SMILES
> 10000	c1ccc(C2CN3CCNCC3c3ccccc32)cc1 (centres undefined)
860	CN1CCN2CC(c3ccc(N)cc3)c3ccccc3C2C1 (cis isomer)
280	CCN1CCN2CC(c3ccccc3)c3ccccc3C2C1 (centres undefined)
60	CN1CCN2CC(c3ccccc3)c3ccccc3C2C1 (stereo in doubt; 7a)
> 10000	c1ccc(CN2CCN3CC(c4ccccc4)c4ccccc4C3C2)cc1 (centres undefined)
520	CN1CCN2CC(c3ccc([N+](=O)[O-])cc3)c3ccccc3C2C1 (cis isomer)
2000	CN(C)CC1NCC(c2ccccc2)c2ccccc21 (centres undefined)
5000	CCNCC1NCC(c2ccccc2)c2ccccc21 (cis isomer)
680	COc1ccc(C2CN3CCN(C)CC3c3ccccc32)cc1 (centres undefined)

Second part, the compound before the results:

SMILES	IC50 [nM]
c1ccc(CCN2CCN3CC(c4ccccc4)c4ccccc4C3C2)cc1 (centres undefined)	> 10000
CN1CCN2CC(c3ccc(O)cc3)c3ccccc3C2C1 (centres undefined)	190
CCCCN1CCN2CC(c3ccccc3)c3ccccc3C2C1 (cis isomer)	> 10000
CN(C)CC1c2ccccc2C(c2ccccc2)CN1C (cis isomer)	> 10000
CN1CCN2CC(c3ccccc3)c3ccccc3C2C1 (trans isomer)	> 10000
CN(C)CCCN1c2ccccc2CCc2ccccc21 [IMIPRAMINE]	30
CNCC1NCC(c2ccccc2)c2ccccc21 (stereo in doubt; 5)	170
CN1CCN2c3ccccc3Cc3ccccc3C2C1 (centres undefined) [MIANSERIN]	14
CN1CCN2CC(c3ccccc3)c3ccccc3C2C1 (single isomer, unassigned; (-))	40
CNCC1NCC(c2ccccc2)c2ccccc21 (stereo in doubt; 4a)	3500
CCCN1CCN2CC(c3ccccc3)c3ccccc3C2C1 (cis isomer)	> 10000
CCCCCCN1CCN2CC(c3ccccc3)c3ccccc3C2C1 (centres undefined)	> 10000
CN1CCN2CC(c3ccc([N+](=O)[O-])cc3)c3ccc([N+](=O)[O-])cc3C2C1 (cis isomer)	> 10000
CN1CCN2CC(c3ccccc3)c3ccccc3C2C1 (stereo in doubt; 10)	2800
CN1CCN2CC(c3ccc(Cl)cc3)c3ccccc3C2C1 (centres undefined)	380

From ChEMBL document CHEMBL1122716, “cis-1,3,4,6,7,11b-Hexahydro-2-methyl-7-phenyl-2H-pyrazino[2,1-a] isoquinoline: a new atypical antidepressant” (J Med Chem, 1984)
